Data as given in patent publication US20100298141A1, “SUBSTITUTED PYRIDINE N-OXIDE HERBICIDES” (E. I. DU PONT DE NEMOURS AND COMPANY, priority 2007, published 2010).

How the values were obtained:
pitted morningglory = assay: Test F preemergence test; type: in vivo, Ipomoea lacunosa; conditions: 16 g ai/ha, preemergence; scale 0 to 100
From the text: (§1) Seeds of plant species selected from bermudagrass (Cynodon dactylon), Surinam grass (Brachiaria decumbens), large crabgrass (Digitaria sanguinalis), green foxtail (Setaria viridis), goosegrass (Eleusine indica), johnsongrass (Sorghum halepense), kochia (Kochia scoparia), pitted morningglory (Ipomoea lacunosa), purple nutsedge (Cyperus rotundus), common ragweed (Ambrosia elation), mustard (Brassica nigra), guineagrass (Panicum maximum), […] (Paspalum dilatatum), barnyardgrass (Echinochloa crus-galli), southern sandbur (Cenchrus echinatus), common sowthistle (Sonchus oleraceous), prickly […] spinosa), Italian ryegrass (Lolium multiflorum), common purslane (Portulaca oleracea), broadleaf signalgrass (Brachiaria platyphylla), common groundsel (Senecio vulgaris), common chickweed (Stellaria media), Virginia dayflower (Commelina virginica), annual bluegrass (Poa annua), naked crabgrass (Digitaria nuda), […] cochinchinensis), quackgrass (Elytrigia repens), Canada horseweed (Conyza canadensis), field bindweed (Convolvulus arvensis), […] (Bidens bipinnata), common mallow (Malva sylvestris), Russian thistle (Salsola kali), and sugarcane (Saccharum officinarum) were planted and treated preemergence with test chemicals formulated in a non-phytotoxic solvent mixture which included a surfactant. At a different time, sugarcane was treated with postemergence applications of some of the test chemicals formulated in the same manner. Plants were approximately 3- to 4-leaf stage for the postemergence treatments. Treated plants and controls were maintained in a greenhouse for 14 to 21 days, after which time all species were compared to controls and visually evaluated. […] A dash (-) response means no test result.

annual bluegrass = assay: Test F preemergence test; type: in vivo, Poa annua; conditions: scale 0 to 100
From the text: as §1

broadleaf signalgrass = assay: Test F preemergence test; type: in vivo, Brachiaria platyphylla; conditions: scale 0 to 100
From the text: as §1

rice = assay: Test C flooded paddy test; type: in vivo, Oryza sativa; conditions: Flood
How it was run: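 Ratings were visual and made relative to untreated controls after 13 to 15 greenhouse days.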

bermudagrass = assay: Test F preemergence test; type: in vivo, Cynodon dactylon; conditions: scale 0 to 100
From the text: as §1

common ragweed = assay: Test F preemergence test; type: in vivo, Ambrosia elation; conditions: scale 0 to 100
From the text: as §1

kochia = assay: Test F preemergence test; type: in vivo, Kochia scoparia; conditions: scale 0 to 100; for Plant response rating, Kochia: Preemergence
From the text: as §1

large crabgrass = assay: Test F preemergence test; type: in vivo, Digitaria sanguinalis; conditions: scale 0 to 100
From the text: as §1

johnsongrass = assay: Test F preemergence test; type: in vivo, Sorghum halepense; conditions: scale 0 to 100
From the text: as §1

Surinam grass = assay: Test F preemergence test; type: in vivo, Brachiaria decumbens; conditions: scale 0 to 100
From the text: as §1

goosegrass = assay: Test F preemergence test; type: in vivo, Eleusine indica; conditions: scale 0 to 100
From the text: as §1

morningglory = assay: Test C pre-/postemergence test; type: in vivo, Ipomoea coccinea
How it was run: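 Compounds in a non-phytotoxic solvent with surfactant applied preemergence to seeded pots and, at the same time, postemergence to plants 2–18 cm tall (1- to 4-leaf stage). Paddy tests: pots flooded to 3 cm, compound applied into the water, depth held throughout.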

purple nutsedge = assay: Test F preemergence test; type: in vivo, Cyperus rotundus; conditions: scale 0 to 100
From the text: as §1

naked crabgrass = assay: Test F preemergence test; type: in vivo, Digitaria nuda; conditions: scale 0 to 100
From the text: as §1

Italian ryegrass = assay: Test F preemergence test; type: in vivo, Lolium multiflorum; conditions: scale 0 to 100
From the text: as §1

Cn1nc(C(F)(F)F)c(C[S+]([O-])c2ccc(Cl)c[n+]2[O-])c1OCC(F)F (stereo not shown) [Compound 85]
Plant response rating, Morningglory (pitted morningglory): 0
Plant response rating, Bluegrass (annual bluegrass; 16 g ai/ha, preemergence): 75
Bluegrass plant response rating (annual bluegrass; 125 g ai/ha, preemergence): 100
Plant response rating, Bluegrass (annual bluegrass; Preemergence, 62 g ai/ha): 95
Plant response rating, Bluegrass (annual bluegrass; Preemergence, 31 g ai/ha): 95
Plant response rating, Signalgrass (broadleaf signalgrass; 16 g ai/ha, preemergence): 60
Signalgrass plant response rating (broadleaf signalgrass; 125 g ai/ha, preemergence): 80
Plant response rating, Signalgrass (broadleaf signalgrass; Preemergence, 62 g ai/ha): 70
Plant response rating, Signalgrass (broadleaf signalgrass; Preemergence, 31 g ai/ha): 70
Plant response rating, Rice (rice; 31 g ai/ha, scale 0 to 100 (0 no effect, 100 complete control)): 0
Plant response rating, Rice (rice; 62 g ai/ha, scale 0 to 100 (0 no effect, 100 complete control)): 0
Plant response rating, Rice (rice; 125 g ai/ha, scale 0 to 100, 0 no effect, 100 complete control, 13 to 15 days): 30
Plant response rating, Rice (rice; 250 g ai/ha, scale 0 to 100, 0 no effect, 100 complete control, 13 to 15 days): 50
Plant response rating, Bermudagrass (bermudagrass; 16 g ai/ha, preemergence): 20
Bermudagrass plant response rating (bermudagrass; 125 g ai/ha, preemergence): 95
Plant response rating, Bermudagrass (bermudagrass; Preemergence, 62 g ai/ha): 80
Plant response rating, Bermudagrass (bermudagrass; Preemergence, 31 g ai/ha): 60
Plant response rating, Ragweed (common ragweed; 16 g ai/ha, preemergence): 0
Ragweed plant response rating (common ragweed; 125 g ai/ha, preemergence): 80
Plant response rating, Ragweed (common ragweed; Preemergence, 62 g ai/ha): 80
Plant response rating, Ragweed (common ragweed; Preemergence, 31 g ai/ha): 20
Kochia plant response rating (kochia; 125 g ai/ha, preemergence): 100
Plant response rating, Kochia (kochia; 62 g ai/ha): 100
Plant response rating, Kochia (kochia; 31 g ai/ha): 25
Plant response rating, Crabgrass, Large (large crabgrass; 16 g ai/ha, preemergence): 60
Crabgrass, Large plant response rating (large crabgrass; 125 g ai/ha, preemergence): 90
Plant response rating, Crabgrass, Large (large crabgrass; Preemergence, 62 g ai/ha): 90
Plant response rating, Crabgrass, Large (large crabgrass; Preemergence, 31 g ai/ha): 70
Plant response rating, Johnsongrass (johnsongrass; 16 g ai/ha, preemergence): 40
Johnsongrass plant response rating (johnsongrass; 125 g ai/ha, preemergence): 98
Plant response rating, Johnsongrass (johnsongrass; Preemergence, 62 g ai/ha): 90
Plant response rating, Johnsongrass (johnsongrass; Preemergence, 31 g ai/ha): 75
Plant response rating, Surinam Grass (Surinam grass; 16 g ai/ha, preemergence): 60
Surinam Grass plant response rating (Surinam grass; 125 g ai/ha, preemergence): 100
Plant response rating, Surinam Grass (Surinam grass; Preemergence, 62 g ai/ha): 100
Plant response rating, Surinam Grass (Surinam grass; Preemergence, 31 g ai/ha): 100
Plant response rating, Goosegrass (goosegrass; 16 g ai/ha, preemergence): 35
Goosegrass plant response rating (goosegrass; 125 g ai/ha, preemergence): 100
Plant response rating, Goosegrass (goosegrass; Preemergence, 62 g ai/ha): 80
Plant response rating, Goosegrass (goosegrass; Preemergence, 31 g ai/ha): 65
Morningglory plant response rating (morningglory; 62 g ai/ha, Preemergence, scale 0 to 100): 90
Morningglory plant response rating (morningglory; 125 g ai/ha, preemergence, scale 0 (no effect) to 100 (complete control)): 90
Morningglory plant response rating (morningglory; preemergence, 250 g ai/ha, scale 0 (no effect) to 100 (complete control)): 100
Plant response rating, Purple Nutsedge (purple nutsedge; 16 g ai/ha, preemergence): 0
Purple Nutsedge plant response rating (purple nutsedge; 125 g ai/ha, preemergence): 65
Plant response rating, Purple Nutsedge (purple nutsedge; Preemergence, 62 g ai/ha): 50
Plant response rating, Purple Nutsedge (purple nutsedge; Preemergence, 31 g ai/ha): 0
Plant response rating, Crabgrass, Naked (naked crabgrass; 16 g ai/ha, preemergence): 75
Crabgrass, Naked plant response rating (naked crabgrass; 125 g ai/ha, preemergence): 95
Plant response rating, Crabgrass, Naked (naked crabgrass; Preemergence, 62 g ai/ha): 90
Plant response rating, Crabgrass, Naked (naked crabgrass; Preemergence, 31 g ai/ha): 80
Plant response rating, Ryegrass, Italian (Italian ryegrass; 16 g ai/ha, preemergence): 65
Ryegrass, Italian plant response rating (Italian ryegrass; 125 g ai/ha, preemergence): 100
Plant response rating, Ryegrass, Italian (Italian ryegrass; Preemergence, 62 g ai/ha): 100
Plant response rating, Ryegrass, Italian (Italian ryegrass; Preemergence, 31 g ai/ha): 65
